Where “and” joins values, the source holds several entries; their conditions need not be identical. Equal values may be shown once. Entries after “also recorded” stand apart in the source; their conditions may differ.
Assays:
Dopamine D3 = Dopamine D3 (Homo sapiens, UniProt P35462); test: MDS Pharma Services counterscreen binding; details: semi-quantitative
Guinea pig NOP receptor = Guinea pig NOP receptor (Cavia porcellus, UniProt P47748); test: NOP receptor binding, brain; details: guinea pig brain (cortex); Mean±S.E.M.
[1] = Pharmacokinetic profile in the rat; format: in vivo; details: 10 mg/kg p.o.
Dopamine transporter = Dopamine transporter (Homo sapiens, UniProt Q01959); test: MDS Pharma Services counterscreen binding; details: semi-quantitative
[2] = Safety pharmacology rat studies; format: in vivo; details: oral doses up to 30 mg/kg, data not shown
[3] = tested on: MDS Pharma enzyme and receptor binding assays (benzodiazepine, bradykinin, dopamine D1/D2/D4, GABA, glutamate, glycine, serotonin, tachykinin); test: MDS Pharma Services counterscreen panel, remaining assays; details: tested at 10 μM; active = greater than 50% inhibition
[4] = tested on: conditioned place preference; test: Rat conditioned place preference; format: in vivo; details: for conditioned place preference (time spent in drug paired side): SCH 486757 10 mg/kg p.o., amphetamine 3 mg/kg, morphine 10 mg/kg, 4 pairings
[5] = General tolerability / overt behavioral effects; format: in vivo; details: guinea pig, rat, cat and dogs
Serotonin 5-HT6 = Serotonin 5-HT6 (Homo sapiens, UniProt P50406); test: MDS Pharma Services counterscreen binding; details: semi-quantitative
[6] = Pharmacokinetic profile in the dog; format: in vivo
[7] = molecular target: human KOP opioid receptor (Homo sapiens, UniProt P41145); test: Opioid receptor binding, [3H]diprenorphine; details: human KOP in CHO cell membranes, Mean±S.E.M.
[8] = Pharmacokinetic profile in the guinea pig; format: in vivo
[9] = tested on: mechanically-induced cough; test: Feline mechanically-induced cough; format: in vivo, cat; details: intra-vertebral artery, 0.001–0.3 mg/kg cumulative
Dog NOP receptor = test: NOP receptor binding, brain; details: Mean±S.E.M.
Cat NOP receptor = test: NOP receptor binding, brain; details: Mean±S.E.M.
Sodium channel, site 2 = test: MDS Pharma Services counterscreen binding; details: site 2 (rat), semi-quantitative
capsaicin-induced cough = details: for doses producing significant CNS effects (lethargy, ataxia): guinea pig, in vivo, po
[10] = molecular target: human DOP opioid receptor (Homo sapiens, UniProt P41143); test: Opioid receptor binding, [3H]diprenorphine; details: human DOP in CHO cell membranes, Mean±S.E.M.
Sigma (non-selective) = test: MDS Pharma Services counterscreen binding; details: Sigma (non-selective, guinea pig); semi-quantitative
Rat NOP receptor = Rat NOP receptor (Rattus norvegicus, UniProt P35370); test: NOP receptor binding, clone; details: rat clone (CHO cells); Mean±S.E.M.
Rat NOP receptor, sequence (P35370 whole entry): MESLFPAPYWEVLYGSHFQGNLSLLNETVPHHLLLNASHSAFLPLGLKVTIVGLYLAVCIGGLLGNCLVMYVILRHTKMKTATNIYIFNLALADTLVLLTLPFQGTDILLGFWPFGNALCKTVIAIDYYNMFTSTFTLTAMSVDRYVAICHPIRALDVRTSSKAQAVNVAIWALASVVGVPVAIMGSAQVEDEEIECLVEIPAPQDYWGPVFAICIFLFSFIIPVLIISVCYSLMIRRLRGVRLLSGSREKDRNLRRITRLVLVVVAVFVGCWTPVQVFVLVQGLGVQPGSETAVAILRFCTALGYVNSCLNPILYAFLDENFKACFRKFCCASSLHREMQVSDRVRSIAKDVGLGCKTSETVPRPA

Guinea pig NOP receptor, sequence (P47748 whole entry): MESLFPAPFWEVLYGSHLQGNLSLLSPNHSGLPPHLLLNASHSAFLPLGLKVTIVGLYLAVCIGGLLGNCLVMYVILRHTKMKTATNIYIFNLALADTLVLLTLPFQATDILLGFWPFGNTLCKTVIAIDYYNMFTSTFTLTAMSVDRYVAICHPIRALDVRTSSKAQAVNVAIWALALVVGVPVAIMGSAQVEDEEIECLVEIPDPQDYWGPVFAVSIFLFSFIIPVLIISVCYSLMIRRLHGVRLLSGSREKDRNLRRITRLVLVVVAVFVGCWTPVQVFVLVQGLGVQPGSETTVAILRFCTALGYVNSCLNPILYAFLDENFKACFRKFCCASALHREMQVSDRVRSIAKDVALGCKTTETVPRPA
human KOP opioid receptor, sequence (P41145 whole entry): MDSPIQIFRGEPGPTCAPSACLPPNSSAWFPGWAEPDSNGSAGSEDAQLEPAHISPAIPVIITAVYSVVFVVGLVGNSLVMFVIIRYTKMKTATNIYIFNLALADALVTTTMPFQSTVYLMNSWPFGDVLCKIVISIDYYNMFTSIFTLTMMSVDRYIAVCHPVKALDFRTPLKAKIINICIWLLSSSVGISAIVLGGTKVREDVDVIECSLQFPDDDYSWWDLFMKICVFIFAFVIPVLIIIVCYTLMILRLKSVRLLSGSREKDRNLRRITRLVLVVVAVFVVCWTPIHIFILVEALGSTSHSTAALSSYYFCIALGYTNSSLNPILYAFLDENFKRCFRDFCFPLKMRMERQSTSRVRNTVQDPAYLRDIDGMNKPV
human DOP opioid receptor, sequence (P41143 whole entry): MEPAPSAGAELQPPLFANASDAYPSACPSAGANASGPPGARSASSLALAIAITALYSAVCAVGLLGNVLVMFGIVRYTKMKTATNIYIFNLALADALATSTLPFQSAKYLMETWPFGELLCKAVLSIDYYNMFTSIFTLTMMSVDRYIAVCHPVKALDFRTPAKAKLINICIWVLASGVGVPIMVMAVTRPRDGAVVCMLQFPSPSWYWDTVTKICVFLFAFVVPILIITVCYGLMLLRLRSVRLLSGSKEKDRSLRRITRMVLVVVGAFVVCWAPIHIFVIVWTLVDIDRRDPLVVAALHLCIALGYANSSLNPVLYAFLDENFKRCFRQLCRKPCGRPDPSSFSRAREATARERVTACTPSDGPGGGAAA
Serotonin 5-HT6, sequence (P50406 whole entry): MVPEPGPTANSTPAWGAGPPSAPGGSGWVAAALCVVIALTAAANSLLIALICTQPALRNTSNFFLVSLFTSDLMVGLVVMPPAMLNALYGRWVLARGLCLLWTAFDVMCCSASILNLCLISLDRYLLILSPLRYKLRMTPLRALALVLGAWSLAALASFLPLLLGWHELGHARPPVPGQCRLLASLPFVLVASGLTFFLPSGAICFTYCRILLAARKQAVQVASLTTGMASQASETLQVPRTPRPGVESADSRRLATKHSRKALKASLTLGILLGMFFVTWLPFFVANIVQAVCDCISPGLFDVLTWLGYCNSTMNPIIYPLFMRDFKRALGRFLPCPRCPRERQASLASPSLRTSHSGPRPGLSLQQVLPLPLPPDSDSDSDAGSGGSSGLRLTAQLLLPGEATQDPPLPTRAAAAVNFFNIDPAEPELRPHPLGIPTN
Dopamine D3, sequence (P35462 whole entry): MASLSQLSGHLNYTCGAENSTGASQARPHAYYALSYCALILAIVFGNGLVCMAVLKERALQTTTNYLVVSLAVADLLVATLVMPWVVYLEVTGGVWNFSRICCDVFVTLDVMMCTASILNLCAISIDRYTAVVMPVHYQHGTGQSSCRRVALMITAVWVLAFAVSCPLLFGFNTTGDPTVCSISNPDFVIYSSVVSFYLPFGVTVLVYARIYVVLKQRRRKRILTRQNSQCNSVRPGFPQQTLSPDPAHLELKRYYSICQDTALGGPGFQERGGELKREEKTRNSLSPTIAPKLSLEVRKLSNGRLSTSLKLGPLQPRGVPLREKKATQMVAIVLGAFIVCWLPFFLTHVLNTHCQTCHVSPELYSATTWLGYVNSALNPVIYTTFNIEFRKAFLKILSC
Dopamine transporter, sequence (Q01959 whole entry): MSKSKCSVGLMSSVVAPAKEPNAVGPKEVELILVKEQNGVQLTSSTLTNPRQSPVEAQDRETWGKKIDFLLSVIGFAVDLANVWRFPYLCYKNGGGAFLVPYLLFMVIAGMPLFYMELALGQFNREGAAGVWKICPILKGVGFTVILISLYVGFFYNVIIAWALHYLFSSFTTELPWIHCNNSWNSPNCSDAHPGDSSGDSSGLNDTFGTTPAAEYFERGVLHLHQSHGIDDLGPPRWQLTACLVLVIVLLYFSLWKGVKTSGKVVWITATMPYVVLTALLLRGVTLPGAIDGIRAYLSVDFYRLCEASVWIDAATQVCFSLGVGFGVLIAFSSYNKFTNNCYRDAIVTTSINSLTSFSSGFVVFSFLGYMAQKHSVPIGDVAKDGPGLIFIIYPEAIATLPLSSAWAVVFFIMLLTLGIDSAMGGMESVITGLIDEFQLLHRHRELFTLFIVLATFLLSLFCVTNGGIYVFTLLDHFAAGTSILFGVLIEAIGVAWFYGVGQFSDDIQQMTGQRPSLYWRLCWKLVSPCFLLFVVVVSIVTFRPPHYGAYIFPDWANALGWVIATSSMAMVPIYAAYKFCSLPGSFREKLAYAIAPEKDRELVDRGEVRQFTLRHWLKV

## OC1(c2ncccn2)CC2CCC(C1)N2C(c1ccccc1Cl)c1ccccc1Cl (centres unmarked) [SCH 486757, 8-[Bis(2-Chlorophenyl)Methyl]-3-(2-Pyrimidinyl)-8-Azabicyclo-[3.2.1.]Octan-3-Ol]
Dopamine D3
  Ki: 3660 nM
Guinea pig NOP receptor
  Ki: 5.4 ± 0.32 nM
[1]
  AUC: 1.29 µM·h
  Cmax: 127 nM
  Tmax: 3.3 h
Dopamine transporter
  Ki: 8430 nM
[2]
  effect on blood gases or respiratory function parameters: did not affect
[3]
  activity in remaining MDS Pharma enzyme and receptor binding assays: did not show significant affinity
[4]; 10 mg/kg p.o.
  number of entries into the drug paired side: did not alter
[4]
  conditioned place preference (time spent in drug paired side): without effect; also recorded: did not produce any conditioned place preference; also recorded: no effect
[5]
  tolerability, overt behavioral effects: well tolerated
Serotonin 5-HT6
  Ki: 2350 nM
[6]; 3 mg/kg intravenous
  half-life (t1/2): 7.9 h
  mean AUC: 5.68 µM·h
[6]; 3 mg/kg p.o.
  AUC: 1.84 µM·h
  Cmax: 540 nM
  Tmax: 0.8 h
[6]; 3 mg/kg p.o. vs intravenous
  percent bioavailability (F%): 32%
[7]
  Ki: 590 ± 40 nM
[8]; 0.03 mg/kg p.o.
  AUC: 0.027 µM·h
  Tmax: 3 h
  plasma concentration during the 2- to 4-hour time period: about 2 nM
[8]; 0.03 mg/kg p.o., 0.03 mg/kg
  Cmax: 3.1 nM and 3 nM
[8]; 0.30 mg/kg p.o.
  AUC: 0.242 µM·h
  Cmax: 31 nM
  Tmax: 3 h
[9]
  effect on inspiratory electromyogram amplitude: did not significantly affect; also recorded: no significant effect
Dog NOP receptor
  Ki: 5.3 ± 0.71 nM
Cat NOP receptor
  Ki: 6.7 ± 0.67 nM
Sodium channel, site 2
  Ki: 5580 nM
capsaicin-induced cough; 0.1 mg/kg, p.o., 2 and 6 h
  antitussive activity at 2 and 6 h: Significant antitussive activity
capsaicin-induced cough; 1 mg/kg p.o., 5-day BID regimen, 2 h post last dose
  inhibition of capsaicin-evoked coughing, chronic dosing: 40 ± 11%
capsaicin-induced cough; 1 mg/kg p.o., single dose, 2 h post treatment
  inhibition of capsaicin-evoked coughing, acute dosing: 46 ±9%
capsaicin-induced cough; 1 mg/kg, p.o., 24 h, data not shown
  inhibition of cough at 24 h: did not inhibited cough
capsaicin-induced cough; 5-day BID dosing regimen, 1 mg/kg p.o.
  tolerance to antitussive activity: does not produce tolerance
capsaicin-induced cough; SCH 486757 3 mg/kg p.o., naltrexone 10 mg/kg p.o., 2 h
  antitussive effect in presence of naltrexone: not by naltrexone
capsaicin-induced cough; p.o., 4 h post administration
  ED50 against capsaicin-induced cough: 0.04 mg/kg
  maximum efficacy, cough suppression: 66 ± 6%
[10]
  Ki: 14700 ± 2560 nM
Sigma (non-selective)
  Ki: 7120 nM
Rat NOP receptor
  Ki: 6.6 ± 0.15 nM

## CC(N)Cc1ccccc1 (centres unmarked) [amphetamine, reference compound]
[4]
  conditioned place preference (time spent in drug paired side): induced a marked conditioned place preference; also recorded: increased the time spent on the drug paired side

## COc1ccc2c3c1O[C@H]1[C@@H](O)C=C[C@H]4[C@@H](C2)N(C)CC[C@@]341 [codeine, reference compound]
capsaicin-induced cough
  doses producing significant CNS effects (lethargy, ataxia): higher than 60 mg/kg
capsaicin-induced cough; p.o., 4 h
  antitussive efficacy compared between SCH 486757 and standards: comparable antitussive efficacies

## COc1ccc2c(c1)[C@]13CCCC[C@@H]1[C@H](C2)N(C)CC3 [dextromethorphan, reference compound]
capsaicin-induced cough
  doses producing significant CNS effects (lethargy, ataxia): > 100 mg

## CN1CC[C@]23c4c5ccc(O)c4O[C@H]2[C@@H](O)C=C[C@H]3[C@H]1C5 [morphine, reference compound]
[4]
  conditioned place preference (time spent in drug paired side): induced a marked conditioned place preference; also recorded: increased the time spent on the drug paired side

## O=C1CC[C@@]2(O)[C@H]3Cc4ccc(O)c5c4[C@@]2(CCN3CC2CC2)[C@H]1O5 [naltrexone, reference compound]
capsaicin-induced cough; J113397 12 mg/kg i.p., naltrexone 10 mg/kg p.o.
  action on capsaicin-induced cough responses, given alone: Neither naltrexone nor J113397 given alone had any actions
